What follows are compounds tested against T1, human LPA1 (Homo sapiens, UniProt Q92633) (assay: LPA1 functional antagonist assay (LPA-induced calcium flux in CHO cells overexpressing human LPA1)). Settings: inhibition of calcium flux induced by 10 nM LPA, CHO cells overexpressing human LPA1; read-out: hLPA1 IC50.
T1 construct: expressed in transfected cells; host or cells: Chinese hamster ovary (CHO) cells
Assay type: cell-based
How it was run: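 Calcium flux was triggered by 10 nM LPA after 20 min room-temperature compound pre-incubation (final 0.08 nM to 5 μM, 0.5% DMSO) in human LPA1-overexpressing CHO cells carrying calcium dye. Buffer: HBSS with Ca/Mg, 20 mM HEPES, 0.1% fatty-acid-free BSA; IC50s from 4-parameter logistic fits.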

T1 sequence (Q92633 whole entry): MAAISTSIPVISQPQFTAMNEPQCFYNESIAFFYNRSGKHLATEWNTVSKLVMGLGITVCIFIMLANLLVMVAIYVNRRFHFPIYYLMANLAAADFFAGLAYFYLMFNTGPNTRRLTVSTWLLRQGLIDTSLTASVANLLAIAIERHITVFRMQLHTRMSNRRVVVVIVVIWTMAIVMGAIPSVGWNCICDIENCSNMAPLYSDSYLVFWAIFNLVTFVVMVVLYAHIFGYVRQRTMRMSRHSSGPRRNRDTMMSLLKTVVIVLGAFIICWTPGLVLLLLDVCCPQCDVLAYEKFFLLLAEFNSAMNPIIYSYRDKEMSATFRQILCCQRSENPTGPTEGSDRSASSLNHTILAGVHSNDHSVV

SMILES	IC50 [nM]
Cc1nc(-c2nnn(C)c2CNc2nnn(-c3ccc(Cl)cc3)n2)ccc1O[C@H]1CCC[C@H](C(=O)O)C1 [Example 384, (1S,3S)-3-((6-(5-(((2-(4-chloro-phenyl)-2H-tetrazol-5-yl)amino)methyl)-1-methyl-1H-1,2,3-triazol-4-yl)-2-methylpyridin-3-yl)oxy)cyclohexane-1-carboxylic acid]	41

Same assay, conditions: read-out: hLPA1 IC50

SMILES	IC50 [nM]
Cc1ccc(-n2nnc(NCc3c(-c4ccc(O[C@H]5CCC[C@H](C(=O)O)C5)c(C)n4)nnn3C)n2)cc1 [Example 385, (1S,3S)-3-((2-methyl-6-(1-methyl-5-(((2-(p-tolyl)-2H-tetrazol-5-yl)amino)methyl)-1H-1,2,3-triazol-4-yl)pyridin-3-yl)oxy)cyclohexane-1-carboxylic acid]	158
Cc1nc(-c2nnn(C)c2CNc2nnn(CC3CC3)n2)ccc1O[C@H]1CCC[C@H](C(=O)O)C1 [Example 386, (1S,3S)-3-((6-(5-(((2-(cyclopropyl-methyl)-2H-tetrazol-5-yl)amino)methyl)-1-methyl-1H-1,2,3-triazol-4-yl)-2-methylpyridin-3-yl)oxy)cyclohexane-1-carboxylic acid]	26
CCCn1nnc(NCc2c(-c3ccc(O[C@H]4CCC[C@H](C(=O)O)C4)c(C)n3)nnn2C)n1 [Example 387, (1S,3S)-3-((2-methyl-6-(1-methyl-5-(((2-propyl-2H-tetrazol-5-yl)amino)methyl)-1H-1,2,3-triazol-4-yl)pyridin-3-yl)oxy)cyclohexane-1-carboxylic acid]	285
Cc1nc(-c2nnn(C)c2CNc2nnn(CC(C)C)n2)ccc1O[C@H]1CCC[C@H](C(=O)O)C1 [Example 388, (1S,3S)-3-((6-(5-(((2-isobutyl-2H-tetrazol-5-yl)amino)methyl)-1-methyl-1H-1,2,3-triazol-4-yl)-2-methylpyridin-3-yl)oxy)cyclo-hexane-1-carboxylic acid]	43
Cc1nc(-c2nnn(C)c2CNc2nnn(-c3ccccc3)n2)ccc1O[C@H]1CCC[C@H](C(=O)O)C1 [Example 389, (1S,3S)-3-((2-methyl-6-(1-methyl-5-(((2-phenyl-2H-tetrazol-5-yl)amino)methyl)-1H-1,2,3-triazol-4-yl)pyridin-3-yl)oxy)cyclohexane-1-carboxylic acid]	84
Cc1nc(-c2nnn(C)c2CNc2nnnn2Cc2ccccc2)ccc1O[C@H]1CCC[C@H](C(=O)O)C1 [Example 390, (1S,3S)-3-((6-(5-(((1-benzyl-1H-tetrazol-5-yl)amino)methyl)-1-methyl-1H-1,2,3-triazol-4-yl)-2-methylpyridin-3-yl)oxy)cyclo-hexane-1-carboxylic acid]	375
Cc1nc(-c2nnn(C)c2CNc2nnn(Cc3ccccc3)n2)ccc1O[C@H]1CCC[C@H](C(=O)O)C1 [Example 391, (1S,3S)-3-((6-(5-(((2-benzyl-2H-tetrazol-5-yl)amino)methyl)-1-methyl-1H-1,2,3-triazol-4-yl)-2-methylpyridin-3-yl)oxy)cyclo-hexane-1-carboxylic acid]	23
C=CCn1nnc(NCc2c(-c3ccc(O[C@H]4CCC[C@H](C(=O)O)C4)c(C)n3)nnn2C)n1 [Example 392, (1S,3S)-3-((6-(5-(((2-allyl-2H-tetrazol-5-yl)amino)methyl)-1-methyl-1H-1,2,3-triazol-4-yl)-2-methylpyridin-3-yl)oxy)cyclo-hexane-1-carboxylic acid]	167
CCc1nc(-c2nnn(C)c2CNc2nc(C3CCCC3)ns2)ccc1O[C@H]1CCC[C@H](C(=O)O)C1 [Example 393, (1S,3S)-3-((6-(5-(((3-cyclopentyl-1,2,4-thiadiazol-5-yl)amino)methyl)-1-methyl-1H-1,2,3-triazol-4-yl)-2-ethylpyridin-3-yl)oxy)cyclohexane-1-carboxylic acid]	35
CCc1nc(-c2nnn(C)c2CNc2nc(C(C)(C)C)ns2)ccc1O[C@H]1CCC[C@H](C(=O)O)C1 [Example 394, (1S,3S)-3-((6-(5-(((3-(tert-butyl)-1,2,4-thiadiazol-5-yl)amino)methyl)-1-methyl-1H-1,2,3-triazol-4-yl)-2-ethylpyridin-3-yl)oxy)cyclohexane-1-carboxylic acid]	66
